Measured values from patent US7511062B2, “Substituted 2-quinolyl-oxazoles useful as PDE4 inhibitors” (Schering Corporation, priority 2004, dated 2009).

The compounds below were run against Human PDE4 Enzyme (assay: PDE4 screening assay ([3H]cAMP SPA)). Conditions: human neutrophil PDE4, [3H]cAMP SPA.
Assay type: biochemical
Protocol: The neutrophils were isolated from human blood using a standard procedure, then homogenized with a glass-glass homogenizer in a buffer containing 20 mM Tris/HCl (pH 8.0), protease inhibitor cocktail tablet (Cat. No. 1836145/Boehringer Mannheim), 2 mM EDTA, 1% Triton X-100 and 0.5% deoxycholate. After stirring for 2 h at 4° C., the samples were centrifuged at 100,000 g for 1 h. The supernatants were collected, filtered and applied to Mono Q column chromatography. The fractions containing the activity of hydrolyzing cAMP were determined and pooled as the enzymatic source of the PDE4 screening assay.
2. PDE4 Assay and Compound Screening
The PDE4 assays were performed using Phosphodiesterase [^3H]cAMP SPA enzyme assay kits and its procedures (Cat. No. TRKQ 7090, Amersham). The assay procedures are described briefly as follows. The diluted PDE4 enzyme, 10× assay buffer and water were mixed at a ratio of 1:1:6 (10 μl/10 μl/60 μl). 80 μl aliquots of this mixture were added into the test wells of a 96-well Microlite plate (Cat. No. 7416, ThermoLabsystems). Enzyme dilution buffer, instead of the diluted enzyme, and water were added into the wells of negative control (background). 10 μl test compounds in 10% DMSO, standard inhibitor in 10% DMSO or 10% DMSO (for positive and negative controls) were added into the corresponding wells, respectively. After a 10 min incubation at RT, the reactions were initiated by addition of 10 μl pre-diluted [^3H]cAMP into each well, then incubated at 30° C. for 30 min. The reactions were stopped by addition of 50 μl SPA beads into the test wells, then counted in a β-counter over 30 min ˜24 hr.
10× Assay Buffer: 500 mM Tris/HCl pH 7.5, 83 mM MgCl2, 17 mM EGTA
[^3H]cAMP: [3H] cAMP (40-60 Ci/mmol) is diluted at a 1:200 ratio with water. The final concentration is 0.005 μCi/μl
Yttrium SPA Beads: 500 mg of beads was reconstituted with 28 ml of water, stored at 4° C.

| SMILES | IC50 [nM] |
| --- | --- |
| COc1ccc(-c2nc(C(=O)N[C@H]3CCC[C@@H]3O)c([C@H](C)N)o2)c2ccc(C(F)(F)F)nc12 [26-417] | 1.4 |
| COc1ccc(-c2nc(C(=O)NCc3csc4ccccc34)c(CN)o2)c2ccc(C(F)(F)F)nc12 [13-106] | 0.14 |
| COc1ccc(-c2nc(C(=O)N3CCN(C(=O)C4CC4)CC3)c([C@H](C)N)o2)c2ccc(C(F)(F)F)nc12 [26-293] | 0.5 |
| COc1ccc(-c2nc(C(=O)NC3CCCc4nccnc43)c([C@H](C)N)o2)c2ccc(C(F)(F)F)nc12 (mixture of isomers) [26-42] | 0.07 |
| COc1ccc(-c2nc(C(=O)NCc3ccc(F)cc3F)c([C@@H](N)CO)o2)c2ccc(C(F)(F)F)nc12 [38-3] | 1.8 |
| COc1ccc(-c2nc(C(=O)N3CCC(Nc4ncccn4)CC3)c([C@H](C)N)o2)c2ccc(C(F)(F)F)nc12 [26-177] | 3 |
| COc1ccc(-c2nc(C(=O)NCc3coc4ccccc34)c([C@H](C)N)o2)c2ccc(C(F)(F)F)nc12 [26-92] | 0.01 |
| COc1ccc(-c2nc(C(=O)N3C[C@](O)(c4ncccn4)C[C@H]3C(=O)OC(C)C)c([C@H](C)N)o2)c2ccc(C(F)(F)F)nc12 [26-241] | 0.2 |
| COc1ccc(-c2nc(C(=O)NC[C@@H](C)NC(=O)C3CC3)c([C@H](C)N)o2)c2ccc(C(F)(F)F)nc12 [26-444] | 0.03 |
